Laboratory results from US20260273072A1, “NOVEL PLK1 DEGRADATION INDUCING COMPOUND” (UPPTHERA, INC., priority 2023, published 2026).

Key:
Format in all cases: cell-based
[1] = tested on: NCI-H69 cell line; experiment: Cell viability assay for NCI-H69 cell line (EZ-Cytox); details: Homo sapiens, NCI-H69, 120 h; H69 cells, 5 days, 3000 nM to 0.46 nM
Method in brief: (§1)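 Human SCLC lines cultured with compound for 5 days in a CO2 incubator; viability read by EZ-Cytox absorbance at 450 nm after 3 min shaking. IC50 reported in activity bins (A: <30 nM up to E: <400 nM).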

[2] = molecular target: T1, PLK1 (Homo sapiens, UniProt P53350); experiment: Luciferase assay for PLK1 in HeLa LgBit (Plk1-HiBit KI) cell line; details: 300 nM compound, luminescence after 9 hours
T1 construct: endogenous in cells; host or cells: HeLa LgBit (Plk1-HiBit KI): HeLa stably expressing LgBit, with a CRISPR/Cas9 knock-in of HiBit at the endogenous PLK1 locus
Method in brief: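 HeLa LgBit cells with endogenous PLK1 C-terminally HiBit-tagged by CRISPR knock-in; released from 24 h 2 mM thymidine block, seeded, grown 18 h. Compounds at 300 nM with Endurazine substrate; luminescence (470-480 nm) tracked in real time, expressed as ratio to DMSO.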

[3] = tested on: MRC-5 cell line; experiment: Cell viability assay for MRC-5 cell line (EZ-Cytox); details: Homo sapiens, MRC5, 120 h; MRC-5 normal cell line, 5 days, 10000 nM to 1.52 nM; read-out: Activity: IC50 value, cell viability, MRC-5 cell line (Exemplary Compounds)
Description: 4. Cell Viability Assay for MRC-5 Cell Line
(1) Culture of MRC-5 Cell Line
The MRC-5 cell line was purchased from KCLB. Passage of cultured cells was maintained within P15.
(2) Treatment of Compounds of the Present Invention
Then, it was cultured in 37° C. CO2 incubator (Thermo Fisher Scientific) for 5 days.
(3) Cytotoxicity Experiment
CO2 incubator for 4 hours.

[4] = tested on: NCI-H526 cell line; experiment: Cell viability assay for NCI-H526 cell line (EZ-Cytox); details: Homo sapiens, NCI-H526, 120 h; H526 cells, 5 days, 3000 nM to 0.46 nM
Method in brief: as §1

T1 sequence (P53350 whole entry): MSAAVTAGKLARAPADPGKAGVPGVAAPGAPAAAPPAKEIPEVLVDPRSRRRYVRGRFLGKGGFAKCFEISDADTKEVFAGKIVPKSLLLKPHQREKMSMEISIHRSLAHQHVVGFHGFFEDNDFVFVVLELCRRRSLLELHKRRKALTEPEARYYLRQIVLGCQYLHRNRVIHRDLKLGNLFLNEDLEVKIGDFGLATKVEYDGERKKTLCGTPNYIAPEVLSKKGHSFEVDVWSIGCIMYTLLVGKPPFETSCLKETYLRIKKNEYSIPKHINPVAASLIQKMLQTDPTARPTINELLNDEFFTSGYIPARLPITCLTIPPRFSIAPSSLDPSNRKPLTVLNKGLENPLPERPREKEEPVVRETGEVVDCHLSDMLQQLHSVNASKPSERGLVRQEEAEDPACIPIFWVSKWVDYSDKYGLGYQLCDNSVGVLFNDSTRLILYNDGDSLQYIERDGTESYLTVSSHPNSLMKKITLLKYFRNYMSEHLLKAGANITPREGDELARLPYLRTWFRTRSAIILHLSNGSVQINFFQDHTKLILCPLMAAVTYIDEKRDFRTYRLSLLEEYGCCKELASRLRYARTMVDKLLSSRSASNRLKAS

Row | SMILES | Activity: ratio of the luminescence value of compound treatment group to DMSO treatment group [2] | IC50 [1] | IC50 [3] | IC50 [4]
1 | COc1cc(C(=O)NN2C[C@@H]3[C@@H](CCN4CCN(c5ccc(NC6CCC(=O)NC6=O)cc5)CC4)[C@@H]3C2)ccc1Nc1ncc2c(n1)N(C(C)C)CC(F)(F)C(=O)N2C (stereo partly drawn) [Compound 25, 4-((7,7-difluoro-9-isopropyl-5-methyl-6-oxo-6,7,8,9-tetrahydro-5H-pyrimido[4,5-b][1,4]diazepin-2-yl)amino)-N-((1R,5S,6s)-6-(2-(4-(4-((2,6-dioxopiperidin-3-yl)amino)phenyl)piperazin-1-yl)ethyl)-3-azabicyclo[3.1.0]hexan-3-yl)-3-methoxybenzamide] | ++ (++: <0.5) | < 100 nM | > 10000 nM | < 30 nM
2 | COc1cc(C(=O)NC2CC3(CCN(CC4CCN(c5ccc(NC6CCC(=O)NC6=O)c(F)c5)CC4)CC3)C2)ccc1Nc1ncc2c(n1)N(C1CCCC1)CC(F)(F)C(=O)N2C (stereo not shown) [Compound 36, 4-((9-cyclopentyl-7,7-difluoro-5-methyl-6-oxo-6,7,8,9-tetrahydro-5H-pyrimido[4,5-b][1,4]diazepin-2-yl)amino)-N-(7-((1-(4-((2,6-dioxopiperidin-3-yl)amino)-3-fluorophenyl)piperidin-4-yl)methyl)-7-azaspiro[3.5]nonan-2-yl)-3-methoxybenzamide] | +++ (+++: <0.3) | < 50 nM | > 10000 nM | < 30 nM
3 | COc1cc(C(=O)NC2CCC(N(C)CC3CCN(c4ccc(C5CCC(=O)NC5=O)nc4)CC3)CC2)ccc1Nc1ncc2c(n1)N(C(C)C)CC(F)(F)C(=O)N2C (stereo not shown) [Compound 11, 4-((7,7-difluoro-9-isopropyl-5-methyl-6-oxo-6,7,8,9-tetrahydro-5H-pyrimido[4,5-b][1,4]diazepin-2-yl)amino)-N-((1r,4r)-4-(((1-(6-(2,6-dioxopiperidin-3-yl)pyridin-3-yl)piperidin-4-yl)methyl)(methyl)amino)cyclohexyl)-3-methoxybenzamide] | ++ (++: <0.5) | < 30 nM | > 10000 nM | < 30 nM
4 | COc1cc(C(=O)NC2CC3(CCN(CC4CCN(c5cnc(C6CCC(=O)NC6=O)cc5C)CC4)CC3)C2)ccc1Nc1ncc2c(n1)N(C1CCCC1)CC(F)(F)C(=O)N2C (stereo not shown) [Compound 17, 4-((9-cyclopentyl-7,7-difluoro-5-methyl-6-oxo-6,7,8,9-tetrahydro-5H-pyrimido[4,5-b][1,4]diazepin-2-yl)amino)-N-(7-((1-(6-(2,6-dioxopiperidin-3-yl)-4-methylpyridin-3-yl)piperidin-4-yl)methyl)-7-azaspiro[3.5]nonan-2-yl)-3-methoxybenzamide] | +++ (+++: <0.3) | < 30 nM | > 10000 nM | < 30 nM
5 | CCN1CC(F)(F)C(=O)N(C)c2cnc(Nc3ccc(C(=O)NN4CCC(CCN5CCN(c6ccc(NC7CCC(=O)NC7=O)cc6F)CC5)CC4)cc3OC)nc21 (stereo not shown) [Compound 28, N(4-(2-(4-(4-((2,6-dioxopiperidin-3-yl)amino)-2-fluorophenyl)piperazin-1-yl)ethyl)piperidin-1-yl)-4-((9-ethyl-7,7-difluoro-5-methyl-6-oxo-6,7,8,9-tetrahydro-5H-pyrimido[4,5-b][1,4]diazepin-2-yl)amino)-3-methoxybenzamide] | +++ (+++: <0.3) | < 30 nM | > 10000 nM | < 30 nM
6 | COc1cc(C(=O)NC2CC3(CCN(CC4CCN(c5cnc(C6CCC(=O)NC6=O)cc5C)CC4)CC3)C2)ccc1Nc1ncc2c(n1)N(C(C)C)CC(F)(F)C(=O)N2C (stereo not shown) [Compound 19, 4-((7,7-difluoro-9-isopropyl-5-methyl-6-oxo-6,7,8,9-tetrahydro-5H-pyrimido[4,5-b][1,4]diazepin-2-yl)amino)-N-(7-((1-(6-(2,6-dioxopiperidin-3-yl)-4-methylpyridin-3-yl)piperidin-4-yl)methyl)-7-azaspiro[3.5]nonan-2-yl)-3-methoxybenzamide] | ++ (++: <0.5) | < 30 nM | > 10000 nM | < 30 nM
7 | COc1cc(N2CCN(CCC3CCN(NC(=O)c4ccc(Nc5ncc6c(n5)N(C5CCCC5)CC(F)(F)C(=O)N6C)c(OC)c4F)CC3)CC2)c(F)cc1NC1CCC(=O)NC1=O (stereo not shown) [Compound 44, 4-((9-cyclopentyl-7,7-difluoro-5-methyl-6-oxo-6,7,8,9-tetrahydro-5H-pyrimido[4,5-b][1,4]diazepin-2-yl)amino)-N-(4-(2-(4-(4-((2,6-dioxopiperidin-3-yl)amino)-2-fluoro-5-methoxyphenyl)piperazin-1-yl)ethyl)piperidin-1-yl)-2-fluoro-3-methoxybenz amide] | +++ (+++: <0.3) | < 100 nM | > 10000 nM | < 50 nM

Further lines, with some results ahead:

Row | Activity: ratio of the luminescence value of compound treatment group to DMSO treatment group [2] | SMILES | IC50 [1] | IC50 [3] | IC50 [4]
8 | ++ (++: <0.5) | COc1cc(C(=O)NC2CCN(CCN3CCN(c4cc(F)c(NC5CCC(=O)NC5=O)cc4F)CC3)CC2)ccc1Nc1ncc2c(n1)N(C1CCCC1)CC(F)(F)C(=O)N2C (stereo not shown) [Compound 67, 4-((9-cyclopentyl-7,7-difluoro-5-methyl-6-oxo-6,7,8,9-tetrahydro-5H-pyrimido[4,5-b][1,4]diazepin-2-yl)amino)-N-(1-(2-(4-(4-((2,6-dioxopiperidin-3-yl)amino)-2,5-difluorophenyl)piperazin-1-yl)ethyl)piperidin-4-yl)-3-methoxybenzamide] | < 30 nM | > 10000 nM | < 30 nM
9 | +++ (+++: <0.3) | COc1cc(C(=O)NN2CCC(CCN3CCN(c4cc(F)c(NC5CCC(=O)NC5=O)cc4F)CC3)CC2)ccc1Nc1ncc2c(n1)N(C1CCCC1)CC(F)(F)C(=O)N2C (stereo not shown) [Compound 57, 4-((9-cyclopentyl-7,7-difluoro-5-methyl-6-oxo-6,7,8,9-tetrahydro-5H-pyrimido[4,5-b][1,4]diazepin-2-yl)amino)-N-(4-(2-(4-(4-((2,6-dioxopiperidin-3-yl)amino)-2,5-difluorophenyl)piperazin-1-yl)ethyl)piperidin-1-yl)-3-methoxybenzamide] | < 30 nM | > 10000 nM | < 30 nM
10 | ++ (++: <0.5) | COc1cc(N2CCN(CCC3CCN(NC(=O)c4cc(F)c(Nc5ncc6c(n5)N(C(C)C)CC(F)(F)C(=O)N6C)cc4OC)CC3)CC2)c(F)cc1NC1CCC(=O)NC1=O (stereo not shown) [Compound 45, 4-((7,7-difluoro-9-isopropyl-5-methyl-6-oxo-6,7,8,9-tetrahydro-5H-pyrimido[4,5-b][1,4]diazepin-2-yl)amino)-N-(4-(2-(4-(4-((2,6-dioxopiperidin-3-yl)amino)-2-fluoro-5-methoxyphenyl)piperazin-1-yl)ethyl)piperidin-1-yl)-5-fluoro-2-methoxybenzamide] | < 200 nM | > 10000 nM | < 200 nM
11 | ++ (++: <0.5) | COc1cc(C(=O)NC2CCN(CCC3CCN(c4cc(OC)c(NC5CCC(=O)NC5=O)cc4F)CC3)CC2)c(F)cc1Nc1ncc2c(n1)N(C(C)C)CC(F)(F)C(=O)N2C (stereo not shown) [Compound 50, 4-((7,7-difluoro-9-isopropyl-5-methyl-6-oxo-6,7,8,9-tetrahydro-5H-pyrimido[4,5-b][1,4]diazepin-2-yl)amino)-N-(1-(2-(1-(4-((2,6-dioxopiperidin-3-yl)amino)-2-fluoro-5-methoxyphenyl)piperidin-4-yl)ethyl)piperidin-4-yl)-2-fluoro-5-methoxybenzamide] | < 100 nM | > 10000 nM | < 50 nM
12 | +++ (+++: <0.3) | COc1cc(C(=O)NN2CCC(CCN3CCN(c4cc(C)c(NC5CCC(=O)NC5=O)cc4F)CC3)CC2)ccc1Nc1ncc2c(n1)N(C(C)C)CC(F)(F)C(=O)N2C (stereo not shown) [Compound 75, 4-((7,7-difluoro-9-isopropyl-5-methyl-6-oxo-6,7,8,9-tetrahydro-5H-pyrimido[4,5-b][1,4]diazepin-2-yl)amino)-N-(4-(2-(4-(4-((2,6-dioxopiperidin-3-yl)amino)-2-fluoro-5-methylphenyl)piperazin-1-yl)ethyl)piperidin-1-yl)-3-methoxybenzamide] | < 30 nM | > 10000 nM | < 30 nM
13 | ++ (++: <0.5) | COc1cc(C(=O)NN2CCC(CCN3CCN(c4cc(F)c(NC5CCC(=O)NC5=O)cc4OC)CC3)CC2)ccc1Nc1ncc2c(n1)N(C1CCCC1)CC(F)(F)C(=O)N2C (stereo not shown) [Compound 56, 4-((9-cyclopentyl-7,7-difluoro-5-methyl-6-oxo-6,7,8,9-tetrahydro-5H-pyrimido[4,5-b][1,4]diazepin-2-yl)amino)-N-(4-(2-(4-(4-((2,6-dioxopiperidin-3-yl)amino)-5-fluoro-2-methoxyphenyl)piperazin-1-yl)ethyl)piperidin-1-yl)-3-methoxybenzamide] | < 30 nM | > 10000 nM | < 30 nM
